Measurements from publication PMC6934184, “Selective DNA-PKcs inhibition extends the therapeutic index of localized radiotherapy and chemotherapy” (The Journal of Clinical Investigation, 2019).

Biological target: T1, IKBKE (IKK epsilon) (Homo sapiens, UniProt Q14164)
T1 construct: purchased Thermo Fisher Scientific (Life Technologies) SelectScreen
Experiment: SelectScreen Z'LYTE
Type: biochemical
Experimental: The in vitro kinase selectivity of NU5455 was determined using the SelectScreen Broad Assay Panel (Thermo Fisher Scientific) involving activity and binding assays (Supplemental Table 1). […] Class IA PI3Ks were measured using the p85α subunit.
Kinase [ATP] % Assay Kinase [ATP] % Assay Kinase [ATP] % Assay Kinase [ATP] % Assay
DNA-PK Km app 98.3 Z LATS2 n/a 4.7 L KIT D820E n/a 1.3 L GSK3B (GSK3 beta) Km app -2.5 Z
PIK3C3 (hVPS34) Km app 85.9 A PRKCZ (PKC zeta) Km app 4.7 Z GRK1 n/a 1.3 L BMPR2 n/a -2.5 L
PIK3C2B (PI3K-C2 beta) 10 28.9 A FGFR1 Km app 4.7 Z BRSK2 n/a 1.2 L CDC42 BPB (MRCKB) Km app -2.5 Z
SNF1LK2 Km app 26.6 Z MINK1 Km app 4.6 Z NUAK1 (ARK5) Km app 1.2 A AMPK (A2/B2/G2) n/a -2.6 L
HCK Km app 18.0 Z CSF1R (FMS) Km app 4.3 Z CDK9/cyclin K n/a 1.0 L PRKG1 Km app -2.7 Z
NEK2 Km app 17.8 Z CSNK1G3 (CK1 gamma 3) Km app 4.2 Z NUAK2 n/a 1.0 L KIT T670E n/a -2.8 L
ALK Km app 17.3 Z STK32C (YANK3) n/a 4.2 L CDK2/cyclin O n/a 0.9 L ERBB4 (HER4) Km app -2.8 Z
FGFR3 K650M n/a 16.5 L STK22D (TSSK1) Km app 4.2 Z CAMKK2 (CaMKK beta) n/a 0.9 L PLK4 n/a -2.8 L
SIK3 n/a 16.1 L TAOK3 (JIK) n/a 4.2 L FGFR3 Km app 0.9 Z GRK7 Km app -3.0 Z
LYN A Km app 15.2 Z RPS6KA4 (MSK2) Km app 4.2 Z ULK2 n/a 0.9 L MAPKAPK2 Km app -3.1 Z
BMPR1B (ALK6) n/a 14.5 L PTK2B (FAK2) Km app 4.2 Z KIT D816V n/a 0.9 L FGFR4 Km app -3.1 Z
INSRR (IRR) Km app 14.1 Z CLK2 Km app 4.1 Z CAMK1 (CaMK1) 10 0.8 A CASK n/a -3.1 L
PLK2 Km app 14.1 Z STK24 (MST3) Km app 4.1 Z PTK6 (Brk) Km app 0.7 Z GRK5 Km app -3.2 Z
PRKACA (PKA) Km app 14.0 Z CAMK1D (CaMKI delta) Km app 4.1 Z CAMK2B (CaMKII beta) Km app 0.7 Z EGFR (ErbB1) T790M Km app -3.3 Z
EIF2AK2 (PKR) n/a 13.3 L INSR Km app 4.1 Z ACVR1 (ALK2) n/a 0.7 L PAK4 Km app -3.3 Z
PRKX Km app 12.5 Z IRAK1 Km app 4.0 A ABL1 H396P n/a 0.6 L DAPK3 (ZIPK) Km app -3.4 Z
FGR Km app 12.1 Z SRC N1 Km app 3.9 Z MERTK (cMER) A708S n/a 0.6 L RET M918T n/a -3.5 L
CLK1 Km app 11.7 Z SRPK2 Km app 3.9 Z MAPKAPK5 (PRAK) Km app 0.6 Z PRKCQ (PKC theta) Km app -3.7 Z
MARK3 Km app 11.4 Z RPS6KA6 (RSK4) Km app 3.8 Z AKT1 (PKB alpha) Km app 0.5 Z CAMKK1 (CAMKKA) n/a -3.8 L
PDGFRB (PDGFR beta) Km app 11.0 Z GRK6 Km app 3.7 Z NTRK3 (TRKC) Km app 0.4 Z FLT3 D835Y Km app -3.9 Z
PRKCN (PKD3) Km app 10.7 Z PKN1 (PRK1) Km app 3.6 Z ZAP70 Km app 0.3 Z ROCK2 Km app -4.1 Z
STK16 (PKL12) n/a 10.5 L MAP3K8 (COT) 100 3.5 Z CSNK1A1 (CK1 alpha 1) Km app 0.3 Z CHUK (IKK alpha) Km app -4.2 A
FES (FPS) Km app 10.4 Z FLT4 (VEGFR3) Km app 3.5 Z MYLK (MLCK) n/a 0.2 L AXL Km app -4.2 Z
ABL1 Km app 10.4 Z GRK4 Km app 3.5 Z MKNK2 (MNK2) n/a 0.2 L PIM2 Km app -4.3 Z
MUSK Km app 10.3 Z FRK (PTK5) Km app 3.4 Z AMPK (A1/B1/G3) n/a 0.2 L PAK1 Km app -4.4 Z
MAPK1 (ERK2) Km app 10.1 Z FYN A n/a 3.3 L MAP3K2 (MEKK2) n/a 0.1 L BMPR1A (ALK3) n/a -4.4 L
BRAF 100 9.9 Z CDK1/cyclin A2 n/a 3.3 L CDK8/cyclin C n/a 0.1 L STK4 (MST1) Km app -4.4 Z
IGF1R Km app 9.7 Z KIT V559D T670I n/a 3.1 L MARK2 Km app 0.1 Z PRKCH (PKC eta) Km app -4.6 Z
MAPK14 (p38 alpha) Km app 9.7 Z SPHK2 10 3.1 A ICK n/a 0.0 L SGKL (SGK3) Km app -4.6 Z
LCK Km app 9.6 Z FGFR3 G697C n/a 3.1 L FGFR2 Km app 0.0 Z PI4KB (PI4K beta) Km app -4.7 A
MAPK11 (p38 beta) Km app 9.5 Z RIPK2 n/a 3.1 L AKT2 (PKB beta) Km app 0.0 Z PRKCE (PKC epsilon) Km app -4.9 Z
SRC Km app 9.5 Z PAK6 Km app 3.0 Z EPHB2 Km app -0.1 Z PHKG1 Km app -5.0 Z
CHEK1 (CHK1) Km app 9.3 Z LYN B Km app 3.0 Z TGFBR2 n/a -0.1 L PDGFRA D842V Km app -5.0 Z
CAMK2D (CaMKII delta) Km app 9.3 Z DAPK2 n/a 2.9 L TEK (Tie2) Km app -0.1 Z PRKG2 (PKG2) Km app -5.1 Z
PLK1 Km app 9.2 Z EPHA4 Km app 2.9 Z AURKA (Aurora A) Km app -0.1 Z TYRO3 (RSE) Km app -5.1 Z
RET Y791F Km app 9.2 Z PIK3CG (p110 gamma) Km app 2.9 A KIT D816H n/a -0.2 L TAOK2 (TAO1) Km app -5.1 Z
FLT3 Km app 9.1 Z HIPK1 (Myak) Km app 2.8 Z KIT N822K n/a -0.2 L EPHB4 Km app -5.3 Z
MAPK10 (JNK3) 100 9.0 Z ADRBK2 (GRK3) Km app 2.8 Z PRKACG (PRKAC gamma) n/a -0.2 L AURKC (Aurora C) Km app -5.4 Z
CSNK2A2 (CK2 alpha 2) Km app 8.7 Z STK17B (DRAK2) n/a 2.7 L TEK (TIE2) Y1108F n/a -0.3 L JAK1 Km app -5.7 Z […]

T1 sequence (Q14164 whole entry): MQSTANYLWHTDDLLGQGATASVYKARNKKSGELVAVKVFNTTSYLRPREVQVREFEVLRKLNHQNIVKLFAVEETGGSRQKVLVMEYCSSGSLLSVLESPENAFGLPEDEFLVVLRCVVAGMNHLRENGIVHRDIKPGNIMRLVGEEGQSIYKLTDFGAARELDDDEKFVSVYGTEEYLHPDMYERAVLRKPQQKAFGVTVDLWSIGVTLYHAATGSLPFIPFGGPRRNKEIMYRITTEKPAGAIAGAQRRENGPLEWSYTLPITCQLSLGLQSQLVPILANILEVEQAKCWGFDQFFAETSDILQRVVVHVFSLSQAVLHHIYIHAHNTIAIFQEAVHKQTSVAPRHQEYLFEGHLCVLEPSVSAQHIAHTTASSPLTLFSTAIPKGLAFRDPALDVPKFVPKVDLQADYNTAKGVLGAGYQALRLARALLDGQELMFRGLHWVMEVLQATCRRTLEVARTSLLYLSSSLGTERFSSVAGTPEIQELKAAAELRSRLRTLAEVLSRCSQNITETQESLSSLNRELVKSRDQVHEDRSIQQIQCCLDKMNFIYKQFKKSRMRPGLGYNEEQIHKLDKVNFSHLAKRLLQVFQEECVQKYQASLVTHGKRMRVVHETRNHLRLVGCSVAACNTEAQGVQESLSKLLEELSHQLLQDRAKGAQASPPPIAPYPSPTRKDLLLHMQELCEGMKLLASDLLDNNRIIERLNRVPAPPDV

Which inhibition at 1 µM does the source give for `CN(C(=O)CN1CCOCC1)c1ccc2sc3c(-c4cccc5c(=O)cc(N6CC7CCC(C6)O7)oc45)cccc3c2c1` [NU5455] here?
The inhibition at 1 µM was -0.7%.
